Measured values as given in the supplement of paper PMC10307832.

Columns and labels:
Experiment in all cases: relative viability (nuclei count vs DMSO), 5 days (fraction); higher = more cells survive
Ponatinib + Vorinostat = compound: Cc1ccc(C(=O)Nc2ccc(CN3CCN(C)CC3)c(C(F)(F)F)c2)cc1C#Cc1cnc2cccnn12 [Ponatinib] + O=C(CCCCCCC(=O)Nc1ccccc1)NO [Vorinostat] (partner 1 µM)
Procedure, shortened: (§1)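 Relative viability equals treated-well nuclei counts divided by vehicle-well nuclei counts. Counts came from 4× images of lung cancer cell lines grown in 1536-well plates for 5 days after pin-tool dosing on the day after seeding. Dosing used one drug alone or a fixed anchor-drug dose plus five library-drug doses (not always all listed) in √10 steps, and values are medians of duplicate plates.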

Pazopanib + AZD7762 = compound: Cc1ccc(Nc2nccc(N(C)c3ccc4c(C)n(C)nc4c3)n2)cc1S(N)(=O)=O [Pazopanib] + NC(=O)Nc1cc(-c2cccc(F)c2)sc1C(=O)N[C@H]1CCCNC1 [AZD7762] (partner 0.2 µM)
Procedure, shortened: as §1

Pazopanib + Phenformin = compound: Cc1ccc(Nc2nccc(N(C)c3ccc4c(C)n(C)nc4c3)n2)cc1S(N)(=O)=O [Pazopanib] + N=C(N)NC(=N)NCCc1ccccc1 [Phenformin] (partner 250 µM)
Procedure, shortened: as §1

Ponatinib + Bortezomib = compound: Cc1ccc(C(=O)Nc2ccc(CN3CCN(C)CC3)c(C(F)(F)F)c2)cc1C#Cc1cnc2cccnn12 [Ponatinib] + CC(C)C[C@H](NC(=O)[C@H](Cc1ccccc1)NC(=O)c1cnccn1)B(O)O [Bortezomib] (partner 0.002 µM)
Procedure, shortened: as §1

Row | Cell Line | relative viability (Ponatinib + Vorinostat; first compound 0.002 µM) | relative viability (Ponatinib + Vorinostat; first compound 0.006325 µM) | relative viability (Ponatinib + Vorinostat; first compound 0.06325 µM) | relative viability (Ponatinib + Vorinostat; first compound 0.2 µM) | relative viability (Pazopanib + AZD7762; first compound 0.01 µM) | relative viability (Pazopanib + AZD7762; first compound 0.03162 µM) | relative viability (Pazopanib + AZD7762; first compound 0.1 µM) | relative viability (Pazopanib + AZD7762; first compound 0.3162 µM) | relative viability (Pazopanib + AZD7762; first compound 1 µM) | relative viability (Pazopanib + Phenformin; first compound 0.01 µM) | relative viability (Pazopanib + Phenformin; first compound 0.03162 µM) | relative viability (Pazopanib + Phenformin; first compound 0.1 µM) | relative viability (Pazopanib + Phenformin; first compound 0.3162 µM) | relative viability (Pazopanib + Phenformin; first compound 1 µM) | relative viability (Ponatinib + Bortezomib; first compound 0.002 µM) | relative viability (Ponatinib + Bortezomib; first compound 0.006325 µM) | relative viability (Ponatinib + Bortezomib; first compound 0.06325 µM) | relative viability (Ponatinib + Bortezomib; first compound 0.2 µM)
1 | NCI-H522 | 0.853 | 0.964 | 0.95 | 0.928 | 0.679 | 0.667 | 1.09 | 1.03 | 0.857 | 0.532 | 0.618 | 0.71 | 0.7 | 0.65 | – | – | – | –
2 | SW 900 | 0.382 | 0.516 | 0.591 | 0.525 | 0.462 | 0.566 | – | 0.635 | 0.605 | 0.532 | 0.628 | 0.398 | 0.593 | 0.689 | – | – | – | –
3 | A549 | – | – | – | – | – | – | – | – | – | – | 0.169 | 0.178 | 0.142 | 0.18 | – | – | – | –
4 | NCI-H1792 | – | – | – | – | – | 0.704 | 0.701 | 0.67 | 0.662 | – | 0.308 | – | 0.348 | 0.31 | 0.918 | 0.942 | 1.14 | 0.854
5 | NCI-H1703 | – | – | – | – | – | 0.12 | 0.16 | 0.14 | 0.125 | – | – | – | – | – | 0.296 | 0.261 | 0.26 | 0.143
6 | SW 1573 | 0.564 | 0.737 | 0.835 | 0.575 | – | – | – | – | – | 0.406 | 0.36 | 0.471 | 0.437 | 0.509 | 0.971 | 1.02 | 1.03 | 0.997
7 | COR-L 105 | 0.802 | 0.953 | 0.899 | 0.837 | – | – | – | – | – | 0.446 | 0.553 | 0.52 | 0.724 | 0.636 | 0.819 | 0.787 | 1.01 | 0.999
8 | Calu-6 | – | – | – | – | – | – | – | – | – | – | – | – | – | – | 1.01 | 1.11 | 0.953 | 0.856
9 | SK-LU-1 | 0.699 | 0.76 | 0.832 | 0.702 | – | – | – | – | – | 0.505 | 0.627 | 0.537 | 0.571 | 0.575 | 1.01 | 1.01 | 0.949 | 0.757
10 | SK-MES-1 | 0.999 | 1.08 | 1.36 | 1.08 | – | – | – | – | – | 0.734 | 0.661 | 0.668 | 0.669 | 0.688 | – | – | – | –
11 | NCI-H2170 | 0.679 | 0.808 | 0.843 | 0.781 | 0.744 | 0.967 | 0.94 | 0.896 | 0.815 | 0.507 | 0.406 | 0.393 | 0.423 | 0.388 | – | – | – | –
12 | NCI-H1648 | 0.381 | 0.335 | 0.455 | 0.462 | – | – | 0.668 | 0.711 | 0.796 | – | – | – | – | – | – | – | – | –
13 | EBC-1 | – | – | – | – | – | – | – | – | – | – | – | – | – | – | 0.543 | 0.585 | 0.65 | 0.534
14 | NCI-H1299 | – | – | – | – | – | – | – | – | – | – | – | – | – | – | 1.05 | 1 | 1.06 | 0.993
15 | NCI-H2228 | 0.658 | 0.588 | 0.7 | 0.575 | – | – | – | – | – | 0.366 | 0.366 | 0.324 | 0.443 | 0.313 | 0.933 | 1.1 | 0.755 | 0.893
16 | NCI-H2342 | 0.676 | 0.779 | 0.886 | 0.731 | 0.455 | 0.484 | 0.562 | 0.521 | 0.474 | 0.501 | 0.635 | 0.538 | 0.572 | 0.569 | – | – | – | –
17 | IA-LM | 0.913 | 0.875 | 0.861 | 0.783 | – | – | – | – | – | – | – | – | – | – | 0.695 | 0.623 | 0.785 | 0.79
18 | NCI-H1395 | 0.483 | 0.578 | 0.678 | 0.416 | 0.36 | 0.366 | 0.389 | 0.38 | 0.387 | 0.384 | 0.441 | 0.454 | 0.511 | 0.51 | – | – | – | –
19 | NCI-H358 | 0.644 | 0.634 | 0.669 | 0.551 | 0.484 | 0.571 | 0.693 | 0.633 | 0.558 | 0.388 | 0.384 | 0.37 | – | 0.548 | – | – | – | –
20 | NCI-H520 | 0.686 | 0.59 | 0.663 | 0.499 | – | – | – | – | – | 0.386 | 0.545 | 0.507 | 0.705 | 0.537 | 0.623 | 0.83 | 0.874 | 0.439
21 | NCI-H661 | 0.735 | 0.775 | 0.831 | 0.819 | – | – | – | – | – | 0.275 | 0.281 | 0.255 | 0.272 | 0.316 | 0.714 | 0.88 | 0.962 | 0.63
22 | NCI-H1944 | 0.519 | 0.637 | 0.693 | 0.679 | 0.442 | 0.504 | 0.595 | 0.571 | 0.555 | – | 0.191 | 0.218 | 0.227 | 0.228 | – | – | – | –
23 | NCI-H2023 | 0.661 | 0.634 | 0.851 | 0.593 | – | – | – | – | – | 0.421 | 0.43 | 0.398 | 0.444 | 0.434 | 0.957 | 0.982 | 1.17 | 0.764
24 | NCI-H2009 | 0.666 | 0.783 | 0.694 | 0.585 | – | – | – | – | – | 0.504 | 0.47 | 0.451 | 0.453 | 0.388 | 0.86 | 0.969 | 1.05 | 1
